Read-outs that look alike come from different tables or passages of the source.
Key:
[1] = test system: rat model of SCI (balloon crush spinal cord injury); assay: Hind End Locomotor test in the rat model of SCI; format: in vivo, rat (Long Evans); conditions: 5 mg/rat/day oral (2.5 mg twice a day in jello), treatment groups 2-8 weeks post-SCI; ANOVA
Experimental: In the Hind End Locomotor test, performed once every day in unrestrained rats in the cage, the motor function is measured with movements of both hind legs scored 0-6 with 0=complete paralysis and 6=normal gait [Kwiecien et al, 2019, 2020b, 2020c].
(§1) Healthy male Long Evans rats aged 12 weeks, 330-360 g, were offered a fruit flavored jello cube twice a day for 1 week prior to the surgery and were separated in individual cages 3 days before the surgery. Rats were induced with 5% isoflurane in 95% oxygen flowing at a rate of 1 liter per minute and maintained at 3.5% isoflurane in 96.5% oxygen. The anaesthetized rats had the skin on the back shaved and prepared for surgery with 70% ethyl alcohol and 10% iodine swabs. The skin was cut over the caudal thoracic and lumbar spine and spinal muscles dissected from the vertebral spine of the thoracic 10 (T10) vertebrum and the dorsal arches of this vertebrum removed. […] In the initial experiment designed to determine the anti-inflammatory effect of 0.2, 1.0 and 5 mg per day of xanthohumol (Sigma-Aldrich) after the surgery, the rats were offered a jello cube with half of the above dose twice a day, at 8-9 hours and 15-16 hours intervals, and the consumption of the jello cube was observed and recorded every day for 7 days. […]
1. […] The motor function of the hind limbs was scored from 0-6 where 0=complete paralysis of both hind legs and 6=normal locomotion.

[2] = test system: rat model of SCI (balloon crush spinal cord injury); assay: Toe Pinch Withdrawal test in the rat model of SCI; format: in vivo, rat (Long Evans); conditions: 5 mg/rat/day oral, treatment groups 2-8 weeks post-SCI; ANOVA
Description: In the Toe Pinch Withdrawal test, performed once every day in rats held by the tail, the sensory function and the strength of both hind limbs are scored 0-6 with 0=complete loss of reaction to the toe pinch and 6=strong, normal withdrawal in both legs after the toe pinch [Kwiecien et al, 2019, 2020b, 2020c].
as §1, with “oxygen.” for “oxygen. The anaesthetized rats had the skin on the back shaved and prepared for surgery with 70% ethyl alcohol and 10% iodine swabs. The skin was cut over the caudal thoracic and lumbar spine and spinal muscles dissected from the vertebral spine of the thoracic 10 (T10) vertebrum and the dorsal arches of this vertebrum removed.”
2. The Toe Pinch Withdrawal test [Kwiecien et al, 2021c] was performed once a day in rats held by the tail in the cage and the presence and strength of both hind legs scored 0-6 where 0=no response to the toe pinch and 6=strong, normal withdrawal response to the toe pinch in both legs.

[3] = test system: rat model of SCI (balloon crush spinal cord injury); assay: Duration of Paralysis of the Urinary Bladder in SCI rats; format: in vivo, rat (Long Evans); conditions: 5 mg/rat/day oral
Description: as §1, with “removed. A 3Fogarty catheter was inserted via this laminectomy over the intact dura towards the head to place the caudal edge of the 3 mm long balloon at 1 cm rostral to the laminectomy.” for “removed.”
4. The duration of the distention of the urinary bladder that required manual voiding until the normal function of the urinary bladder was restored, in days, was recorded.

[4] = Body Weight Change after the SCI surgery; format: in vivo, rat (Long Evans); conditions: 5 mg/rat/day oral
Experimental: The Body Weight Change after the SCI surgery is recorded every 3rd day [Kwiecien et al, 2019, 2020b 2021c].
as §1, with “removed. A 3Fogarty catheter was inserted via this laminectomy over the intact dura towards the head to place the caudal edge of the 3 mm long balloon at 1 cm rostral to the laminectomy.” for “removed.”

[5] = test system: phagocytic macrophages in the cavity of injury (COI); assay: Macrophage Count in the Cavity of Injury (COI), histology LFB+H&E; format: in vivo, rat (Long Evans); conditions: for macrophage numbers in the COI, % of the untreated controls (100%): 7 days post-SCI
Experimental: The histologic examination is performed in the series of consecutive sections, […], of the spinal cord including the lesion, stained with luxol fast blue and counterstained with hematoxylin and eosin (LFB+H&E). A necrotic and hemorrhagic lesion deep in the spinal cord is infiltrated starting at the day 3, by numerous inflammatory, CD68+/CD163− macrophages that phagocytize myelin-rich necrotic debris and red blood cells. The numbers of macrophages rapidly increase and remain high for 4 weeks after SCI after which they gradually decline [Kwiecien et al, 2020a]. Within the first week post-SCI the deep lesion is transformed into a cavity of injury (COI) when it starts to accumulate excess water from edema in the surrounding spinal cord [Kwiecien et al, 2020a, 2021d]. The macrophage count is performed in a COI in the injured spinal cord of untreated and treated rats in a standardized fashion at fixed periods of time post-surgery to determine a degree of reduction of macrophage numbers related to a tested anti-inflammatory agent [Kwiecien et al, 2019; 2020a, 2020b, 2021c]. This reduction in numbers of macrophages plotted against such numbers in controls is reliably indicative of a therapeutic effect of an anti-inflammatory agent.
Healthy male Long Evans rats aged 12 weeks, 330-360 g, were offered a fruit flavored jello cube twice a day for 1 week prior to the surgery and were separated in individual cages 3 days before the surgery. Rats were induced with 5% isoflurane in 95% oxygen flowing at a rate of 1 liter per minute and maintained at 3.5% isoflurane in 96.5% oxygen. The anaesthetized rats had the skin on the back shaved and prepared for surgery with 70% ethyl alcohol and 10% iodine swabs. The skin was cut over the caudal thoracic and lumbar spine and spinal muscles dissected from the vertebral spine of the thoracic 10 (T10) vertebrum and the dorsal arches of this vertebrum removed. A 3Fogarty catheter was inserted via this laminectomy over the intact dura towards the head to place the caudal edge of the 3 mm long balloon at 1 cm rostral to the laminectomy. The balloon was inflated with 15 µL of sterile saline for 3 minutes, then deflated and the catheter removed. The spinal muscles were closed with absorbable sutures over the laminectomy and the skin incision was closed with stainless steel staples. Before awakening, the rats were administered; 50 μL of a painkiller Anafen (ketoprofen, 100 mg/mL, Merial) subcutaneously for pain, and 50 µL of Baytril antibiotic (enrofloxacin 50 mg/mL, Bayer) intramuscular, and 3 mL of saline subcutaneous. In the initial experiment designed to determine the anti-inflammatory effect of 0.2, 1.0 and 5 mg per day of xanthohumol (Sigma-Aldrich) after the surgery, the rats were offered a jello cube with half of the above dose twice a day, at 8-9 hours and 15-16 hours intervals, and the consumption of the jello cube was observed and recorded every day for 7 days. Each treatment group had 5 rats. In the second phase of the experiment 1 jello cube alone or jello cube with 2.5 mg xanthohumol was offered twice a day for 1, 2, 4, 6, and 8 weeks. Each treatment group had 6-7 rats.
At a required experimental time point; 1, 2, 4, 6, or 8 weeks post-surgery, the SCI rats were overdosed with the sodium pentobarbital (80 mg/kg b.w.) administered intraperitoneally. When in deep plane of anaesthesia, the chest was cut open, 100 international units of heparin sodium injected into the left heart ventricle and a cannula with flowing lactated Ringer's solution inserted into the left ventricle while the right auricle was cut open. After the blood was washed out, the flow of the lactated Ringer's solution was replaced by that of phosphate buffered formalin and the carcass was fixed.
The spine was removed, postfixed in formalin overnight and then placed in formalin supplemented with 8% EDTA, pH 7.0, to decalcify the spinal vertebrae. The decalcifying solution was replaced by fresh one every 2 days for 2 weeks. […]

SCI rats = assay: Toxicity observation in SCI rats under oral xanthohumol; format: in vivo; conditions: twice a day, 5 mg per day (approx. 15 mg/kg), up to 8 weeks
Description: as §1, with “removed. A 3Fogarty catheter was inserted via this laminectomy over the intact dura towards the head to place the caudal edge of the 3 mm long balloon at 1 cm rostral to the laminectomy. The balloon was inflated with 15 µL of sterile saline for 3 minutes, then deflated and the catheter removed.” for “removed.”

[6] = cited from earlier work; for bioavailability: Wistar rats
[7] = cited from earlier work
rats = conditions: cited from earlier work
mice = conditions: cited from earlier work
[8] = cited from earlier work; remark: listed apart in the source

## COc1cc(O)c(CC=C(C)C)c(O)c1C(=O)/C=C/c1ccc(O)cc1 [xanthohumol, 2′,4′,4-trihydroxy-6′-methoxy-3′-prenylchalcone]
[1]
  Hind End Locomotor test score (0-6) vs untreated rats: significantly higher scores
[2]
  Toe Pinch Withdrawal test score (0-6) vs untreated rats: statistically better
[3]; 4 weeks treatment group
  recovery of the urinary bladder function vs untreated rats: significantly faster
[3]; 6 weeks treatment group
  recovery of the urinary bladder function vs untreated rats: tendency for the paralyzed urinary bladder to recover faster than in controls
[4]; groups 1, 2 and 8 weeks post-SCI
  body weight change vs untreated controls: no statistical difference
[4]; groups treated for 4 and 6 weeks
  body weight recovery post-surgery vs untreated controls: recovered statistically sooner and to a greater degree
[5]; 0.2 mg/rat/day oral, not statistically significant
  macrophage numbers in the COI, % of the untreated controls (100%): 73.7%
[5]; 1.0 mg/rat/day oral, p=0.026
  macrophage numbers in the COI, % of the untreated controls (100%): 63.9%
[5]; 5 mg/rat/day oral, 1 week post-SCI, second phase
  macrophage counts in the COI, % of the controls: 57.0%
[5]; 5 mg/rat/day oral, 2 weeks post-SCI
  macrophage counts in the COI, % of the controls: 60.7%
[5]; 5 mg/rat/day oral, 4 weeks post-SCI
  macrophage counts in the COI, % of the controls: 14.1%
[5]; 5 mg/rat/day oral, 6 and 8 weeks post-SCI
  macrophages in the COI on histologic sections (FIG. 7): rare or absent
[5]; 5 mg/rat/day oral, 6 weeks post-SCI
  macrophage counts in the COI, % of the controls: 22.9%
[5]; 5 mg/rat/day oral, 8 weeks post-SCI, not statistically different
  macrophage counts in the COI, % of the controls: 32.7%
[5]; 5.0 mg/rat/day oral, dose-response study, p=0.0013
  macrophage numbers in the COI, % of the untreated controls (100%): 53.8%
SCI rats
  toxicity of xanthohumol: not observed
[6]; 10 mg/kg intravenously
  half-life: 7.67 h
[6]; oral 40 mg/kg
  bioavailability: 1.16%
[6]; oral 200 mg/kg
  bioavailability: 0.53%
[7]
  bioavailability after oral administration: approximately 1%
rats; 16.9 mg/kg body weight daily oral
  toxic effect of daily oral administration: no toxic effect
rats
  toxicity after long administration of large doses: no toxicity
mice
  toxicity after long administration of large doses: no toxicity
[8]
  solubility in water: poorly

From US12636261B2, “Treatment of inflammation initiated by the spinal cord injury, the traumatic brain injury, stroke, in inhibition of cerebral and spinal cord edema and of inflammation in neurodegenerative, immune mediated and infectious diseases of the central nervous system” (priority 2021, dated 2026)
